Results as given in patent US20240060113A1, “PRESERVATION OF FETAL NUCLEIC ACIDS IN MATERNAL PLASMA” (STRECK LLC, priority 2009, published 2024).

System: non-human (lambda) DNA
Experiment: Lambda DNA spiked into plasma, stored at room temperature, Quantitative PCR (Example 2, FIG. 3)
Conditions: plasma stored at room temperature 0 to 14 days
Procedure: Blood samples from the same donor are drawn into two different types of blood collection tubes. One tube contains 500 g/L IDU, 81 g/L Tripotassium EDTA and 47 g/L glycine. The other tube contains only Heparin. All samples are centrifuged at 2100 g for 30 minutes at room temperature to separate the plasma. The plasma is then transferred to new tubes and non-human (lambda) DNA is then spiked into the plasma tubes. The spiked samples are then stored at room temperature for 0, 1, 2, 3, 4, 7, 11, and 14 days. Free circulating DNA is purified using the QIAamp® DNA Blood Mini Kit available from QIAGEN Inc. (Valencia, CA). DNA is extracted from each plasma sample. The samples are then amplified by Quantitative PCR (using iQ SYBR Green Supermix reagents available from BIO-RAD Laboratories (Hercules, California)) to identify the amount of lambda DNA present. […] The expected results of this example are shown in graphic format at FIG. 3. This example confirms that the compositions of the present invention are able to maintain the integrity and amount of DNA present in a blood sample.

With Heparin the “relative percentage of lambda DNA present” value was “decreases at every consecutive measurement”.
